The target in data set [1] is T1, TRPM8 (Homo sapiens, UniProt Q7Z2W7). The data set can be described thus: HTS cell-based Ca2+ mobilization assay (FLIPR TETRA) in HEK293/hTRPM8 cells, agonist Cooling Agent 10. The arrangement: expressed in transfected cells. As to conditions: HEK293/hTRPM8, Cooling Agent 10 at EC80. From the text:
A functional cell-based assay for the identification of TRPM8 receptor antagonists, optimised to allow high throughput screening at FLIPR^TETRA, was developed in HEK293 cells by stable pure clone selection and functional characterization with a fluorescent calcium sensitive dye.
TRPM8 was cloned into the multiple cloning site of pcDNA3 mammalian expression vector; the obtained construct pcDNA3/hTRPM8 was fully sequence verified and used for the transfection of HEK293 cell line. HEK293 cells stably transfected with TRPM8 gene were maintained in Minimum essential medium. The cells were transfected with the pcDNA3/hTRPM8 vector by electroporation and then selected with medium containing 0.8 mg/ml G418 for 10-15 days.
The following commercial compounds were used as ligands:
Activator: Cooling Agent 10 (Takasago CAS N. 87061-04-9)
Blocker: Capsazepine (SIGMA cat #D_5879)
The experimental activities were performed using FLIPR^TETRA instruments.
HEK293 cells stably transfected with TRPM8 gene were maintained in Minimum essential medium.
The TRPM8 cell line was analysed for the response to a library of compounds using a Ca^2+ mobilization-dependent fluorescence signal in 384 wells microtiter plate format. The analysis was performed using the FLIPR^TETRA (MDC) with the ICCD Camera.
The execution of the assay involved the use of three microtiter plates:
1. Assay plate, containing cells loaded with dye and prepared as follows:
Cells were seeded at 15000 c/well in Poly-D-Lysine coated 384 wells Microtiter Plates in complete medium (25 μl/well).
24 h after seeding, the cell plates were washed with Tyrode assay buffer by the Microplate Washer and 10 μL of Tyrode assay buffer was left in each well.
Cells were then loaded with 10 μL/well of the Fluo-4 NW dye solution by CyBi®-Well pipettor. Each bottle of Fluo4-NW dye (Molecular Probes cat. #F36206, component A) was re-suspended in 8 mL of Tyrode assay buffer and supplemented with 100 μL of water-soluble probenecid (MolecularProbes cat.#F36206, component B).
Dye loaded cell plates were incubated for 1 h at room temperature.
2. Compound Dilution Plate (FIG. 1), containing diluted test compounds, formulated as follows: […]
Column 1: wells containing Assay Buffer plus DMSO 0.5% final
Columns 3-22: wells containing Assay Buffer plus 0.5% DMSO final. To these wells the compounds to be tested were added at 3× concentration.
Column 23: alternating wells of Max Signal Control in second injection (Assay buffer) and Min Signal Control in second injection (Antagonist Capsazepine IC100, 50 μM) in Assay buffer plus 0.5% DMSO final;
Column 24: wells containing Capsazepine (Antagonist) at 8 concentrations in duplicate at final concentrations of 50 μM, 25 μM, 6.25 μM, 3.15 μM, 1.56 μM, 780 nM, […] in Assay buffer plus 0.5% DMSO final.
3. Activator Plate (FIG. 2), containing agonist Cooling Agent 10 at EC80, formulated as follows:
Column 1: Cooling Agent 10 (Agonist) at 8 concentrations dose response in duplicate at final concentrations of 100 μM, 31.6 μM, 10 μM, 3.16 μM, 1 μM, 316 nM, 100 nM, 31.6 nM in Assay buffer;
Columns 2-24: Cooling Agent 10 (Agonist) at EC80 (3 fold concentrated, 20 μM final) in Assay buffer.
The test was carried out according to a procedure comprising the following steps:
1. The samples contained in the wells of the Compound Plate were added to the corresponding wells of the Assay Plate by the FLIPR^TETRA, thus resulting in the addition in Columns 3-22 of the test compounds at 3× concentration to the cells of the assay plates. No mixing was performed in the assay wells and the signal of the emitted fluorescence was recorded for 300 seconds. 2. The samples contained in the wells of the Activator Plate were added to the corresponding wells of the Assay Plate by the FLIPR^TETRA, thus resulting in the addition in Columns 3-22 of the Assay Plate of the agonist compound in addition to the test compounds. The signal of the emitted fluorescence was recorded for 180 seconds.

The subject of data set [2] is Male Wistar rats. The data set can be described thus: Chronic constriction injury model, mechanical allodynia (Dynamic Plantar Aesthesiometer). The data set is classed as in vivo, rat. The method, then:
(§1) Male Wistar rats (220-250 g, Harlan Italy) were used (n=60). Animals were housed in a room with controlled temperature (22±1° C.), humidity (60±10%) and light (12 h per day) for at least a week before being used. Rats were randomly divided into sham, control and treatment groups; ten animals per group were used. All animal experiments were complied with the Italian (D.L. no.116 of Jan. 27, 1992) and associated guidelines in the European Communities Council (Directive of Nov. 24, 1986, 86/609/ECC).
(§2) Antiallodynic effects were assessed at 1 and 3 h post dose. Control animals received vehicle alone (0.5 ml/iv/rat; 10% solutol-NMP and 90% PBS).
(§3) Neuropathic pain behavior was induced by ligation of the sciatic nerve according to the method described by Bennett and Xie [Bennett G. J. and Xie Y. K. A peripheral mononeuropathy in rat that produces disorders of pain sensation like those seen in man, Pain, (1988) 33:87-107]. Briefly, rats were anaesthetized (100 mg/kg ketamine and 10 mg/kg xylazine i.p.) and the left sciatic nerve was exposed at the level of the thigh by blunt dissection through the biceps femoris. Proximal to the sciatic's trifurcation, about 12 mm of nerve was freed of adhering tissue and four ligatures were loosely tied around it with about 1 mm spacing so that the epineural circulation was preserved. The length of nerve thus affected was 6-8 mm long. The animals were allowed to recover and used the day after the surgery. Sham animals represent rats operated but not ligated.
To assess for changes in sensation or in the development of mechanical allodynia, sensitivity to tactile stimulation was measured using the Dynamic Plantar Aesthesiometer (DPA, Ugo Basile, Italy). Ligated animals were placed in a chamber with a mesh metal floor covered by a plastic dome that enabled the animal to walk freely, but not to jump. The mechanical stimulus was then delivered in the mid-plantar skin of the hind paw. The cut-off was fixed at 50 g, while the increasing force rate (ramp duration) was settled at 20 sec. […]

The next data set addresses TRPV1 (Homo sapiens, UniProt Q8NER1). The data set can be described thus: Calcium influx counterassay, agonist capsaicin. In kind it is cell-based. As to conditions: 0.1 μM capsaicin = 100%, read-out: Normalized % inhibition (TRPV1). The method, then: In order to address more specifically the potential selectivity issues, a counterassay was carried out for 10, 45 and 118 against TRPV1 and TRPV4 ion channels, both involved in the nociception (Jhaveri M D, et al 2005. Eur. J. Neurosci. 22 (2): 361-70, Brierley S M et al, 2008, Gastroenterology. 2008 June; 134(7):2059-69. ). The ability of each test compound to act as an antagonist of TRPV1 was evaluated with a calcium influx assay.

A further data set in a line: Log D. The data set is classed as physicochemical.
Data set [3] has as its target T1, TRPM8.
Description: Values were considered significant if the test compound mean was three or more standard deviations away from the positive control agonist mean.
The test system of data set [4] is Male Wistar rats. Description: Chronic constriction injury model, cold allodynia (acetone). The data set is classed as in vivo, rat. The method, then: as §1, §2, §3
Cold sensitivity was measured as the number of foot withdrawal responses after application of acetone to the dorsal surface of the paw. A drop of acetone (15-20° C.) was applied to the dorsal surface of the ligated paw with a syringe connected to a thin polyethylene tube while the rats were standing on a metal mesh. A brisk foot withdrawal response, after the spread of acetone over the dorsal surface of the paw, was considered as a sign of cold allodynia. Basal response was measured on the days before treatment (2nd, 6th and 13th). […]

The next data set concerns the target TRPV4 (Homo sapiens, UniProt Q9HBA0). Description: Calcium influx counterassay, agonist GSK1016790A. The data set is classed as cell-based. As to conditions: 10 μM GSK1016790A = 100%, read-out: Normalized % inhibition (TRPV4). The method, then:
In parallel, the ability of each test compound to act as an antagonist of TRPV4 was evaluated with a calcium influx assay.

[5] abbreviates: 10 mg/kg i.v., day 7, 1 hour post-dose.
Where [6] appears, read: day 14 after surgery, 1 h post-dose (Compound 118: 10 mg/kg i.v.).
[7] abbreviates: 10 mg/kg i.v., day 7 after nerve injury, 1 hour post-dose.

The structures appear in SMILES notation.

The term IC50 denotes the concentration that inhibits the measured activity by half. A higher IC50 goes with a need for much substance. One may read the inhibition as the percentage by which the read-out fell short of the control.

T1 sequence (Q7Z2W7 whole entry): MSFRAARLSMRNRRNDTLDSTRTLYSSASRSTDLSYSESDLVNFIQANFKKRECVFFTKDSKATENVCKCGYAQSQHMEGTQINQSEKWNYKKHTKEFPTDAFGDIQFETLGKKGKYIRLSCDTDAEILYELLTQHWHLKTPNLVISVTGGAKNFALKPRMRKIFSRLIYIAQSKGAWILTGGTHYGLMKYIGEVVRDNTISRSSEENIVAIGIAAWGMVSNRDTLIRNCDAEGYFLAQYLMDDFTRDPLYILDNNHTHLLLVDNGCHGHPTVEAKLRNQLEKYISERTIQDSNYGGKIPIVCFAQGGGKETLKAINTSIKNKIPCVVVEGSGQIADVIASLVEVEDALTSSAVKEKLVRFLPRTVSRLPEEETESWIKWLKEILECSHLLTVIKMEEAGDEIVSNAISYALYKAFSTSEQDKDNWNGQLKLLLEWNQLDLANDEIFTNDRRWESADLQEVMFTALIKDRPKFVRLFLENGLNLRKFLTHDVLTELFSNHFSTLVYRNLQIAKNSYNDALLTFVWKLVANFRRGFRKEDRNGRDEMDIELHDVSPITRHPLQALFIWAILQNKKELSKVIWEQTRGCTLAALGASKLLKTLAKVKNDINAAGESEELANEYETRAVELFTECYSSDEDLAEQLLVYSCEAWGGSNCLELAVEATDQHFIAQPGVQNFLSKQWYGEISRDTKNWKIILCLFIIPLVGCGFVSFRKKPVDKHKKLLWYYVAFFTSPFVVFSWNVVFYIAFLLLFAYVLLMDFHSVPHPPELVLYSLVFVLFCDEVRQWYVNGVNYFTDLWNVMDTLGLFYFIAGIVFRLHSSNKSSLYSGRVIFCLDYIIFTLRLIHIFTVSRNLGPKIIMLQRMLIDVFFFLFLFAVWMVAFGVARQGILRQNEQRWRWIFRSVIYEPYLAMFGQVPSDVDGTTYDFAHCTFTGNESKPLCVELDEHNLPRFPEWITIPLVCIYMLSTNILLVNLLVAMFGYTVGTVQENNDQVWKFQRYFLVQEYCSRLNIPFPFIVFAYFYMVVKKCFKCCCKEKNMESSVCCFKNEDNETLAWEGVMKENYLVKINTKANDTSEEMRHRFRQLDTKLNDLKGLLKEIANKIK
Sequence of TRPV1 (Q8NER1 whole entry, species assumed): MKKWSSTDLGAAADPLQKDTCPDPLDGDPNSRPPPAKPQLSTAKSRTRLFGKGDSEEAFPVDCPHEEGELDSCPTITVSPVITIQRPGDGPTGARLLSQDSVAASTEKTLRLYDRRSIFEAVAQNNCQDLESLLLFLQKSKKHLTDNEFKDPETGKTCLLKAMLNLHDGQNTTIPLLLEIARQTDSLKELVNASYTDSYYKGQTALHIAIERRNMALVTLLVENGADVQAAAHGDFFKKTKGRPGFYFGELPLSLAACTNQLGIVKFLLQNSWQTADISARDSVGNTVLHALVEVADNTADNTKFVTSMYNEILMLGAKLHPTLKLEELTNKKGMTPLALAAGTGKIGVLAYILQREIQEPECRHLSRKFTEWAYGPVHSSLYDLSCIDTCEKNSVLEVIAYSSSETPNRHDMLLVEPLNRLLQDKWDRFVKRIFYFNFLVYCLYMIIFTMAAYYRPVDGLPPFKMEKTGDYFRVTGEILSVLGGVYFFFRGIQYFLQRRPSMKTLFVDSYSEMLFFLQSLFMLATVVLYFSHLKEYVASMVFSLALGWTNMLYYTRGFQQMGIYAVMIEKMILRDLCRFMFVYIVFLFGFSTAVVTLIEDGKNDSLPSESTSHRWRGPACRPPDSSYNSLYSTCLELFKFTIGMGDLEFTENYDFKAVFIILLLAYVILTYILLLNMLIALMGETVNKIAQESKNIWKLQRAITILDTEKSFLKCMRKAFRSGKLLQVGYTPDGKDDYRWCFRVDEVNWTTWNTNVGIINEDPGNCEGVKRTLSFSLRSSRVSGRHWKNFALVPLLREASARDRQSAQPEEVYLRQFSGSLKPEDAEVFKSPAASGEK
Sequence of TRPV4 (Q9HBA0 whole entry, species assumed): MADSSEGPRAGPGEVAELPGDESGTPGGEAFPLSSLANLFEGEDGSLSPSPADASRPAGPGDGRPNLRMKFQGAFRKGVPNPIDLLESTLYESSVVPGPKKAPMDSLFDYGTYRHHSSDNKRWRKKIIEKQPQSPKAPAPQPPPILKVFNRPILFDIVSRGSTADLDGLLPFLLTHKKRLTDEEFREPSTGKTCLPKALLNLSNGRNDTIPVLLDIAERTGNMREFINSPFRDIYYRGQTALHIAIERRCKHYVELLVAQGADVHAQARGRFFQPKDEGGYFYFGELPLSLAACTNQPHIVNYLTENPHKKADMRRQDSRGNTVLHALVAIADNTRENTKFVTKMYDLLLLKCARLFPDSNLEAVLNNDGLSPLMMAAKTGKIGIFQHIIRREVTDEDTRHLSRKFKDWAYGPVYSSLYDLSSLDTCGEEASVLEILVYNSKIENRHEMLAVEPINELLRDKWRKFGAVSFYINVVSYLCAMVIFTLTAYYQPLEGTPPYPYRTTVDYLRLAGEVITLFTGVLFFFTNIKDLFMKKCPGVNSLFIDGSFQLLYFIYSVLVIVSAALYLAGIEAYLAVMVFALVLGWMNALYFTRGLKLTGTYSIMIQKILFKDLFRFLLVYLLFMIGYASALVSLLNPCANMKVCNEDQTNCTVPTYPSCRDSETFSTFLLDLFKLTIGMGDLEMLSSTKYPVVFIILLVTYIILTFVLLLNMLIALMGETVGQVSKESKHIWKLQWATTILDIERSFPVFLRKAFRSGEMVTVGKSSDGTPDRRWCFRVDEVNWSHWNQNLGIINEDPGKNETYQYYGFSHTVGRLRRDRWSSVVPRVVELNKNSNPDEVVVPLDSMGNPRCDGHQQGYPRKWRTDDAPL

As for `CCOC(=O)c1sc(-c2ccc(Cl)cc2)nc1OCCN` [Compound 41, ethyl 4-(2-aminoethoxy)-2-(4-chlorophenyl)-1,3-thiazole-5-carboxylate], on TRPM8 [1], the IC50 is less than 10 µM.

Consider `Cc1ccc(-c2nc(O)c(C(=O)O)s2)cc1` [Compound 2, 4-hydroxy-2-(4-methylphenyl)-1,3-thiazole-5-carboxylic acid], for which, at TRPM8 [1], the IC50 is less than 10 µM.

`CCOC(=O)c1sc(-c2ccccc2)nc1OCc1ccc(Cl)cc1` [Compound 27, ethyl 4-[(4-chlorobenzyl)oxy]-2-phenyl-1,3-thiazole-5-carboxylate]: the IC50 at TRPM8 [1] was less than 10 µM.

`CCOC(=O)c1sc(-c2ccc(Cl)cc2)nc1NCCN` [Compound 70, ethyl 4-[(2-aminoethyl)amino]-2-(4-chlorophenyl)-1,3-thiazole-5-carboxylate] had an IC50 on TRPM8 [1] of less than 10 µM.

Regarding `CCOC(=O)c1sc(-c2ccc(C)cc2)nc1NCCN` [Compound 67, ethyl 4-[(2-aminoethyl)amino]-2-(4-methylphenyl)-1,3-thiazole-5-carboxylate], at TRPM8 [1], the IC50 is less than 10 µM.

Take `CCn1nnc(-c2sc(-c3cccc(F)c3)nc2O)n1` [Compound 118, 2-(3-fluorophenyl)-5-(2-ethyl-2H-tetrazol-5-yl)-1,3-thiazol-4-ol]: the “mechanical allodynia” value in the data set with Male Wistar rats [2] (setting [5]) is “significantly attenuated”. Moreover, the “inhibition of mechanical allodynia” value in the data set with Male Wistar rats [2] (setting [6]) was “no inhibition”. Moreover, the inhibition at 1 µM on TRPV1 (Test Conc. 1 uM) turned out to be 1.2%; at TRPV4 (Test Conc. 1 uM), 2%. Also, the inhibition at 10 µM was 2.3% on TRPV1 (Test Conc. 10 uM) and 8.9% at TRPV4 (Test Conc. 10 uM). For the same compound, the “log D values” in the data set “Log D” is recorded as “low”. Further, the “antagonist activity in calcium influx assay” value at TRPM8 [3] was “confirmed the antagonist activity”. For the same compound, the “cold allodynia” value in the data set on Male Wistar rats [4] (setting [5]) is “significantly attenuated”. In addition, the “inhibition of cold allodynia” value in the data set with Male Wistar rats [4] (setting [6]) was 52 % of inhibition.

In the case of `O=C(O)c1sc(-c2ccc(Cl)cc2)nc1O` [Compound 1, 2-(4-chlorophenyl)-4-hydroxy-1,3-thiazole-5-carboxylic acid], the “inhibition of mechanical allodynia” value in the data set on Male Wistar rats [2] (setting [7]) is given as 26 % of inhibition. Besides, the “inhibition of cold allodynia” value in the data set on Male Wistar rats [4] (setting [7]) is listed as 39 % of inhibition. At TRPM8 [1], this compound returned an IC50 of less than 10 µM.

Consider `CCOC(=O)c1sc(-c2ccc(Cl)cc2)nc1NCCNC` [Compound 68, ethyl 2-(4-chlorophenyl)-4-{[2-(methylamino)ethyl]amino}-1,3-thiazole-5-carboxylate], for which the IC50 on TRPM8 [1] was less than 10 µM.

In turn, `Cc1ccc(-c2nc(OCc3ccc(Cl)cc3)c(C(=O)O)s2)cc1` [Compound 83, sodium 4-[(4-chlorobenzyl)oxy]-2-(4-methylphenyl)-1,3-thiazole-5-carboxylate] registered an IC50 at TRPM8 [1] of less than 10 µM.

With `O=C(O)c1sc(-c2ccc(Cl)cc2)nc1OCc1ccc(Cl)cc1` [Compound 84, sodium 4-(4-chlorobenzyloxy)-2-(4-chlorophenyl)-1,3-thiazole-5-carboxylate], the IC50 at TRPM8 [1] was less than 10 µM.

Consider `CCOC(=O)c1sc(-c2ccccc2)nc1OC(=O)c1ccc(C(F)(F)F)cc1` [Compound 36, ethyl 2-phenyl-4-{[4-(trifluoromethyl)benzoyl]oxy}-1,3-thiazole-5-carboxylate], for which the IC50 at TRPM8 [1] is less than 10 µM.

The values are drawn from patent US9585875B2, “TRPM8 antagonists” (Dompé S.P.A., priority 2011, dated 2017).
